Test results: patent US20220233565A1, “REDUCED NICOTINAMIDERIBOSIDES FOR TREATING/PREVENTING SKELETAL MUSCLE DISEASE” (SOCIETE DES PRODUITS NESTLE S.A., priority 2019, published 2022)
“Also recorded” adds a separate entry of the source. Counter-ions that a name gives are not always drawn.

Columns and labels:
[1] = target: T1, adenosine kinase (AK) (Mus musculus, UniProt P55264); test: NRH-induced NAD+ synthesis under adenosine kinase inhibition; type: cell-based; parameters: effect of AK inhibitor on the action of NRH (NAD+ synthesis): dose or concentration left out as unconfirmed; conditions: for effect of AK inhibitor on the action of NRH (NAD+ synthesis): AML12 cells, inhibitor 1 hour prior to NRH (5-IT), NAD+ 1 hour later
T1 construct: endogenous in cells; host or cells: AML12 cells
T1 sequence (P55264 whole entry): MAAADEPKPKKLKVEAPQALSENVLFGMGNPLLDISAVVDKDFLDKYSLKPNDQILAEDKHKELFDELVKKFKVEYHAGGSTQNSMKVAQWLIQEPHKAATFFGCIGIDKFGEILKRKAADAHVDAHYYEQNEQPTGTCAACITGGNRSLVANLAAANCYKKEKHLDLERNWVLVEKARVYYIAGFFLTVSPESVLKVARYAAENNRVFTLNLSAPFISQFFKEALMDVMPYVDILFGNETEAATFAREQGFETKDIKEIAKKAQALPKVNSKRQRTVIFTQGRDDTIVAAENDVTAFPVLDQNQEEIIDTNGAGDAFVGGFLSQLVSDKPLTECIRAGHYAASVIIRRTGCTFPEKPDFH
Method: FIG. 4. […] AML12 cells were treated with an adenosine kinase inhibitor (5-IT; […]) for 1 hour prior to NRH treatment at the doses indicated. Then, 1 hour later, acidic extracts were obtained to measure NAD^+ levels. All values in the figure are expressed as mean+/−SEM of 3 independent experiments. * indicates statistical difference at p<0.05 vs. the respective vehicle treated group.

[2] = Intraperitoneal injection in mice: tissue NAD+ and circulating metabolites; type: in vivo; conditions: for NAM levels in circulation / NAD+ levels in kidney / NAD+ levels in liver / NAD+ levels in muscle: IP 500 mg/kg; for NAD+ levels in kidney / NAD+ levels in liver / NAD+ levels in muscle: after 1 h
Source text: (§1) Levels of NRH and other NAD-related metabolites in biological samples were obtained by using a cold liquid-liquid extraction using a mixture of methanol:water:chloroform in 5:3:5 (v/v), from which the polar phase was recovered for hydrophilic interaction ultra-high performance liquid chromatography mass spectrometry (UHPLC-MS) analysis. The UHPLC consisted of a binary pump, a cooled autosampler, and a column oven (DIONEX Ultimate 3000 UHPLC+ Focused, Thermo Scientific), connected to a triple quadrupole spectrometer (TSQ Vantage, Thermo Scientific) equipped with a heated electrospray ionisation (H-ESI) source. Of each sample, 2 μL were injected into the analytical column (2.1 mm×150 mm, 5 μm pore size, 200 Å HILICON iHILIC®-Fusion(P)), guarded by a pre-column (2.1 mm×20 mm, 200 Å HILICON iHILIC®-Fusion(P) Guard Kit) operating at 35° C. The mobile phase (10 mM ammonium acetate at pH 9, A, and acetonitrile, B) was pumped at 0.25 mL/min flow rate over a linear gradient of decreasing organic solvent (0.5-16 min, 90-25% B), followed by re-equilibration for a total run time of 30 min. The MS operated in positive mode at 3500 V with multiple reaction monitoring (MRM). The software Xcalibur v4.1.31.9 (Thermo Scientific) was used for instrument control, data acquisition and processing. Retention time and mass detection was confirmed by authentic standards.
The above results prompted us to test whether NRH could act as an effective NAD+ precursor in vivo. For this, we first intraperitoneally (IP) injected mice with either NR or NRH (500 mg/kg). […] Importantly, NRH was detectable in circulation after IP injection.

[3] = Oral gavage in mice: hepatic NAD+ and plasma metabolites; type: in vivo; conditions: for administered compound in plasma: 1 h after oral administration
Method: 8 week-old C57BI/6NTac mice were orally gavaged with either saline (as vehicle), NR (500 mg/kg) or NRH (500 mg/kg). After 1 hour, liver, skeletal muscle and kidney NAD levels were evaluated. All results are expressed as mean+/−SEM of n=5 mice per group. * indicates statistical difference at p<0.05 vs. vs. saline-treated mice. # indicates statistical difference at p<0.05 vs. NR treated mice.
as §1
Oral administration of NRH led to very similar results to those observed after IP administration. […] NRH was detectable in plasma 1 h after oral administration. In contrast, NR levels were undetectable at 1 h after NR administration.

[4] = Stability in isolated mouse plasma; type: in vitro ADME; conditions: for generation of NAM in plasma / level of spiked compound in plasma: isolated mouse plasma, 2 h of incubation
Source text: as §1
(§2) NR degradation to NAM has been proposed as a limitation for its pharmacological efficacy. To evaluate whether NRH was also susceptible to degradation to NAM, we spiked NRH or NR in isolated mouse plasma. […] We also tested the stability of NRH in other matrixes. […] Finally, we also certified NRH stability in water (pH=7, at room temperature) for 48 h.

[5] = tested on: NRK1; test: NAD+ levels in primary hepatocytes from control or NRK1 knockout mice; type: cell-based; conditions: 1 hour of treatment
Source text: (§3) The action of NRH was also NAMPT-independent, based on experiments using FK866, a NAMPT inhibitor. If NRH led to NAD+ synthesis via the formation of NMNH, this hypothetical path would require the phosphorylation of NRH into NMNH. Given the essential and rate-limiting role of NRK1 in NR phosphorylation, we wondered whether the ability of NRH to boost NAD+ levels was NRK1 dependent. To answer this question, we evaluated NRH action in primary hepatocytes from either control or NRK1 knockout (NRK1KO) mice. […] Further, they rule out the possibility that NRH-induced NAD+ […] is driven by NRH oxidation into NR.

[6] = tested on: NAD+ synthesis; test: Intracellular NAD+ related metabolites after treatment (UHPLC-MS); type: cell-based; conditions: for intracellular detection of NRH and NMNH: 5 minutes after treatment
Source text: as §1
A path in which NRH would be converted to NMNH, then to NADH and this would be finally oxidized to NAD+.

[7] = Oral gavage in mice: NRH levels in tissues; type: in vivo; conditions: 2 hours after gavage (250 mg/kg)
Method: 8 week-old C57BI/6NTac mice were orally gavaged with either saline (as vehicle), and NRH (250 mg/kg). After 2 hours, liver, skeletal muscle and kidney NRH levels were evaluated. All results are expressed as mean+/−SEM of n=4 mice per group, as areas under the signal by LC-MS analysis, corrected by total protein amount of tissue.
as §1

[8] = tested on: 3T3 fibroblasts; test: NAD+ levels in 3T3 fibroblasts after NRH treatment; type: cell-based
Method: (§4) The ability of NRH to potently increase NAD+ was tested as well in other cell type models.

[9] = Stability in FBS supplemented media; type: in vitro ADME
Method: as §2

[10] = tested on: AML12 hepatocytes; test: Intracellular NAD+ levels in AML12 hepatocytes (dose-response and time course); type: cell-based
Method: Starting at levels at a concentration of 10 μM, NRH achieved similar increases in intracellular NAD+ levels to those reached with NR at 50-fold higher concentrations. NRH achieved maximal effects on NAD+ synthesis around the millimolar range, managing to increase intracellular NAD+ levels by more than 10-fold.
NRH actions were also extremely fast, as significant increases in NAD+ levels were observed within 5 minutes after NRH treatment.
Even at such relatively low dose, NRH achieved similar increases in intracellular NAD+ levels to those reached with NR at 50-fold higher concentrations. NRH achieved maximal effects on NAD+ synthesis around the millimolar range, managing to increase intracellular NAD+ levels by more than 10-fold.
NRH actions were also extremely fast (FIG. 3), as significant increases in NAD+ levels were observed within 5 minutes after NRH treatment.

[11] = tested on: C2C12 myotubes; test: NAD+ levels in C2C12 myotubes after NRH treatment; type: cell-based
Method: as §4

[12] = tested on: equilibrative nucleoside transporters (ENTs); test: NRH as extracellular NAD+ precursor under blockage of ENT-mediated transport (NBTI); type: cell-based; conditions: in the presence of NBTI
Source text: In order to understand the exact path by which NRH synthesizes NAD+, we initially evaluated whether NRH, could be transported into the cell by equilibrative nucleoside transporters (ENTs).

[13] = target: T2, NAMPT (Mus musculus, UniProt Q99KQ4); test: NRH action in presence of NAMPT inhibitor FK866; type: cell-based; conditions: with FK866, a NAMPT inhibitor
T2 construct: endogenous in cells
T2 sequence (Q99KQ4 whole entry): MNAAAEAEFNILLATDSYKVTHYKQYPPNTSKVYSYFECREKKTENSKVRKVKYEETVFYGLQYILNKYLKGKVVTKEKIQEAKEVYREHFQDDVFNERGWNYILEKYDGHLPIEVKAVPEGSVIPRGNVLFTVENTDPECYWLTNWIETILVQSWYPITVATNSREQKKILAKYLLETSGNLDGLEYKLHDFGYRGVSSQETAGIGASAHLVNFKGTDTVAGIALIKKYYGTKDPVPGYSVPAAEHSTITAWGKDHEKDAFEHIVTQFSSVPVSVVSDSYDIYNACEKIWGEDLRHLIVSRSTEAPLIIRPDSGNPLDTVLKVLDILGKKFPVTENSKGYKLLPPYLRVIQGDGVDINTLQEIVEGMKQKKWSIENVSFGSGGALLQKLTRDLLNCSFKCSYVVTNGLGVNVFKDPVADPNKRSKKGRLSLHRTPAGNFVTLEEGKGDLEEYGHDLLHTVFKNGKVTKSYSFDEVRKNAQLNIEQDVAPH
Source text: as §3

[14] = Stability in water; type: physicochemical; conditions: pH=7, room temperature
Method: as §2

[15] = tested on: INS1-cells; test: NAD+ levels in INS1-cells after NRH treatment; type: cell-based
Method: as §4

[16] = tested on: NMNAT; test: NRH-induced NAD+ synthesis under NMNAT inhibition (gallotannin); type: cell-based
Source text: As a follow-up step, NMNAT enzymes could catalyze the transition from NMNH to NADH. […] Yet, part of the NRH action remained after gallotannin treatment when NRH was used at maximal doses.

Nc1ncnc2c1c(I)cn2[C@@H]1O[C@H](CO)[C@@H](O)[C@H]1O [5-IT, 5-iodotubercidin]
effect of AK inhibitor on the action of NRH (NAD+ synthesis) [1]: fully ablated
formation of NR and NMN after NRH treatment ([1]; with AK inhibitor): prevented

Nc1ncnc2nc(-c3ccc(N4CCOCC4)nc3)cc(-c3cccc(Br)c3)c12 [ABT-702]
effect of AK inhibitor on the action of NRH (NAD+ synthesis) [1]: confirmed

NC(=O)c1ccc[n+]([C@@H]2O[C@H](CO)[C@@H](O)[C@H]2O)c1 [NR, 1-b-D-ribofuranosyl-3-pyridinecarboxamide salt, reference compound]
NAM levels in circulation [2]: highly increased
NAD+ levels in kidney [2]: increased
NAD+ levels in liver [2]: increased
NAD+ levels in muscle [2]: increased
administered compound in plasma [3]: undetectable
circulating NAM ([3]; oral administration): large increases
generation of NAM in plasma [4]: increase in NAM
level of spiked compound in plasma [4]: decayed
NAD+ levels in NRK1KO derived primary hepatocytes [5]: failed to increase NAD+ levels
intracellular detection of NRH and NMNH [6]: not

NC(=O)C1=CN([C@@H]2O[C@H](CO)[C@@H](O)[C@H]2O)C=CC1 [NRH, reduced nicotinamide riboside]
NRH in kidney [7]: found intact, in high levels
NRH in liver [7]: found intact, in high levels
NRH in muscle [7]: found intact, in high levels
NAD+ levels [8]: highly elevated
degradation to NAM in FBS supplemented media [9]: did not degrade to NAM
NAM levels in circulation [2]: only a very mild increase
NAD+ levels in kidney [2]: increased
NAD+ levels in liver [2]: increased
NAD+ levels in muscle [2]: increased
NRH in circulation ([2]; after IP injection): detectable
NR in circulation ([2]; after IP injection, compared with NR injection): much higher levels than those detected after NR injection itself
administered compound in plasma [3]: detectable
NRH concentration in plasma ([3]; after oral gavage): 11.16 ± 1.74 µM
effect on hepatic NAD+ levels compared with NR ([3]; oral administration): more potent effect
ability to increase intracellular NAD+ compared with NR ([10]; AML12 hepatocytes): better than NR; also recorded: superior to that of NR
time to significant increase in NAD+ levels after treatment ([10]; AML12 hepatocytes (FIG. 3)): ≤ 5 min
increase of intracellular NAD+ levels (maximal effect) ([10]; AML12 hepatocytes, around the millimolar range): more than 10 fold
concentration at which NAD+ levels were significantly increased ([10]; AML12 hepatocytes, dose-response (FIG. 2)): 10 µM
fold higher NR concentration needed for similar increase in intracellular NAD+ ([10]; NRH at 10 μM versus NR): 50 fold
NR production in plasma ([4]; incubation in isolated plasma): did not lead to NR production
generation of NAM in plasma [4]: not generated; also recorded: did not significantly alter NAM levels
level of spiked compound in plasma [4]: remained stable
NAD+ levels [11]: highly elevated
capacity as extracellular NAD+ precursor under ENT blockage [12]: largely lost its capacity
generation of NMNH, NADH and NAD+ from NRH upon inhibition of AK ([1]; metabolomic analyses): fully blunted
dependence of action on NAMPT [13]: NAMPT-independent
time for which stability in water was certified [14]: 48 h
NAD+ levels [15]: highly elevated
NAD+ levels in NRK1KO derived primary hepatocytes [5]: not affected by NRK1 deficiency
intracellular detection of NRH and NMNH [6]: could be detected
intracellular NR and NMN ([6]; after treatment, compared with NR): greater than that triggered by NR itself

O=C(OC[C@H]1O[C@@H](OC(=O)c2cc(O)c(O)c(OC(=O)c3cc(O)c(O)c(O)c3)c2)[C@H](OC(=O)c2cc(O)c(O)c(OC(=O)c3cc(O)c(O)c(O)c3)c2)[C@@H](OC(=O)c2cc(O)c(O)c(OC(=O)c3cc(O)c(O)c(O)c3)c2)[C@@H]1OC(=O)c1cc(O)c(O)c(OC(=O)c2cc(O)c(O)c(O)c2)c1)c1cc(O)c(O)c(OC(=O)c2cc(O)c(O)c(O)c2)c1 [gallotannin]
effect of NMNAT inhibitor on NAD+ synthesis after NRH treatment ([16]; NRH at maximal doses (0.5 mM)): largely compromised
effect of NMNAT inhibitor on NRH action ([16]; NRH at submaximal doses): totally blocked
